The text below walks through data of patent US12077503B2, “Substituted cyclic amides and their use as herbicides” (FMC CORPORATION, priority 2015, dated 2024).

Common to all, as to assay type: in vivo
One assay has as its system rice (Oryra sativa). Description: Test B flooded paddy test. As to conditions: Flood, 250 g ai/ha. Summed up: (§1)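 2-leaf plants; pots flooded 3 cm over soil; cpd added to paddy water; depth held; greenhouse 13–15 d; visual rating vs controls, 0 = no effect, 100 = complete control.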
Assay [1] relates to sedge, umbrella (small-flower umbrella sedge, Cyperus difformis). Briefly: Test B flooded paddy test. As to conditions: Flood, 250 g ai/ha. The essentials: as §1
Assay [2] deals with ducksalad (Heteranthera limosa). Briefly: Test B flooded paddy test. Particulars: Flood, 250 g ai/ha. The essentials: as §1
Assay [3] relates to barnyardgrass (Echinochloa crus-galli). Description: Test B flooded paddy test. Particulars: Flood, 250 g ai/ha. Summed up:
as §1

Assay [4] relates to pigweed (Amaranthus retroflexus). Briefly: Test A preemergence. As to conditions: Amaranthus retroflexus, pre-emergence, 240 h; for pest or weed control at 125 g/ha: 125 g ai/ha, 0 to 100 scale where 0 is no effect and 100 is complete control; for pest or weed control at 500 g/ha: 500 g ai/ha.
In assay [5] the test system is ryegrass, Italian (Italian ryegrass, Lolium multiflorum). Description: Test A postemergence. Particulars: Lolium multiflorum, post-emergence, 240 h; for pest or weed control at 125 g/ha: 125 g ai/ha, postemergence. Summed up:
(§2)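 Seeded soil received test chemicals as a preemergence directed spray, and seedlings at one to two leaves, 2–10 cm tall, received them postemergence, in a non-phytotoxic, surfactant-containing solvent mixture. Pots were held in a greenhouse for approximately 10 d, then rated for injury from 0, no effect, to 100, complete control.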

For assay [6], the system named is ragweed (common ragweed, Ambrosia elatior). Description: Test A postemergence. Particulars: Ambrosia artemisiifolia, post-emergence, 240 h; for pest or weed control at 125 g/ha: 125 g ai/ha, postemergence. Summed up:
as §2

Another assay has as its system Kochia (Kochia scoparia). Briefly: Test A postemergence. Particulars: Bassia scoparia, post-emergence, 240 h; for pest or weed control at 125 g/ha: 125 g ai/ha, postemergence. Summed up: as §2
Assay [7] deals with wheat (Triticum aestivum). Briefly: Test A postemergence. Particulars: Triticum aestivum, post-emergence, 240 h; for plant injury at 125 g/ha: 125 g ai/ha, postemergence. The essentials:
as §2

The test system of assay [8] is giant foxtail (Setaria faberii). Briefly: Test A postemergence. As to conditions: Setaria faberi, post-emergence, 240 h; for pest or weed control at 125 g/ha: 125 g ai/ha, postemergence. Summed up: as §2
Assay [9] concerns blackgrass (Alopecurus myosuroides). Description: Test A postemergence. Particulars: Alopecurus myosuroides, post-emergence, 240 h; for pest or weed control at 125 g/ha: 125 g ai/ha, postemergence. The essentials: as §2
The next assay concerns corn (Zea mays). Description: Test A postemergence. Particulars: Zea mays, post-emergence, 240 h. Summed up:
as §2

Assay [10] deals with pigweed (Amaranthus retroflexus). Description: Test A postemergence. As to conditions: Amaranthus retroflexus, post-emergence, 240 h; for pest or weed control at 125 g/ha: 125 g ai/ha, postemergence. The essentials: as §2
The subject of assay [11] is barnyardgrass (Echinochloa crus-galli). Briefly: Test A postemergence. As to conditions: Echinochloa crus-galli, post-emergence, 240 h; for pest or weed control at 125 g/ha: 125 g ai/ha, postemergence. The essentials: as §2
Assay [12] deals with Galium (catchweed bedstraw, Galium aparine). Description: Test A postemergence. As to conditions: Galium, post-emergence, 240 h; for pest or weed control at 125 g/ha: 125 g ai/ha, postemergence. Summed up:
as §2

Where [13] appears, read: 0 to 100 scale where 0 is no effect and 100 is complete control, 13 to 15 d.

Like-named read-outs stand apart in the source and are kept apart here.

For the compound `CN1C[C@H](c2ccc(C(F)(F)F)cc2)[C@@H](C(=O)Nc2cccc(F)c2F)C1=O` [Compound 623, (3S,4S)—N-(2,3-difluorophenyl)-1-methyl-2-oxo-4-[4-(trifluoromethyl)phenyl]-3-pyrrolidinecarboxamide], in the assay with rice (Oryra sativa) (setting [13]), the “Plant response rating, Rice” value is recorded as 0. In addition, in assay [1] (setting [13]), the “Plant response rating, Sedge, Umbrella” value worked out at 0. The “Plant response rating, Ducksalad” value in assay [2] (setting [13]) is listed as 50. Further, the “Plant response rating, Barnyardgrass” value in assay [3] (setting [13]) is reported as 40. Moreover, the pest or weed control at 125 g/ha in [4] (Preemergence, visual injury after approximately 10 d, read-out: Plant response rating, Pigweed) came out at 80%; in assay [5] (visual rating after approx. 10 d, 0 to 100 scale (0 no effect, 100 complete control), read-out: Plant response rating, Ryegrass, Italian) it was 30%; in assay [6] (visual rating after approx. 10 d, 0 to 100 scale (0 no effect, 100 complete control), read-out: Plant response rating, Ragweed), 20%; in the assay with Kochia (Kochia scoparia) (visual rating after approx. 10 d, 0 to 100 scale (0 no effect, 100 complete control), read-out: Plant response rating, Kochia), 40%; in assay [8] (visual rating after approx. 10 d, 0 to 100 scale (0 no effect, 100 complete control), read-out: Plant response rating, Foxtail, Giant), 90%; in assay [9] (visual rating after approx. 10 d, 0 to 100 scale (0 no effect, 100 complete control), read-out: Plant response rating, Blackgrass), 50%. For the same compound, the pest or weed control at 125 g/ha in assay [10] (visual rating after approx. 10 d, 0 to 100 scale (0 no effect, 100 complete control), read-out: Plant response rating, Pigweed) is 60%; in assay [11] (visual rating after approx. 10 d, 0 to 100 scale (0 no effect, 100 complete control), read-out: Plant response rating, Barnyardgrass) it was 90%; in assay [12] (visual rating after approx. 10 d, 0 to 100 scale (0 no effect, 100 complete control), read-out: Plant response rating, Galium), 50%. Further, the pest or weed control at 500 g/ha was 80% in assay [4] (preemergence, 0 to 100 scale, 0 = no effect, 100 = complete control, read-out: Plant response rating, Pigweed); 60% in [5] (Postemergence, 500 g ai/ha, 0 to 100 scale where 0 is no effect and 100 is complete control, read-out: Plant response rating, Ryegrass, Italian); 0% in [6] (Postemergence, 500 g ai/ha, 0 to 100 scale where 0 is no effect and 100 is complete control, read-out: Plant response rating, Ragweed); 70% with Kochia (Kochia scoparia) (Postemergence, 500 g ai/ha, 0 to 100 scale where 0 is no effect and 100 is complete control, read-out: Plant response rating, Kochia); 90% in assay [8] (Postemergence, 500 g ai/ha, 0 to 100 scale where 0 is no effect and 100 is complete control, read-out: Plant response rating, Foxtail, Giant); 60% in [9] (Postemergence, 500 g ai/ha, 0 to 100 scale where 0 is no effect and 100 is complete control, read-out: Plant response rating, Blackgrass). Also, the pest or weed control at 500 g/ha in assay [10] (Postemergence, 500 g ai/ha, 0 to 100 scale where 0 is no effect and 100 is complete control, read-out: Plant response rating, Pigweed) was 60%; in [11] (Postemergence, 500 g ai/ha, 0 to 100 scale where 0 is no effect and 100 is complete control, read-out: Plant response rating, Barnyardgrass), 90%; in assay [12] (Postemergence, 500 g ai/ha, 0 to 100 scale where 0 is no effect and 100 is complete control, read-out: Plant response rating, Galium), 60%. In addition, the plant injury at 125 g/ha in assay [7] (visual rating after approx. 10 d, 0 to 100 scale (0 no effect, 100 complete control), read-out: Plant response rating, Wheat) was 40%. In assay [7] (Postemergence, 500 g ai/ha, 0 to 100 scale where 0 is no effect and 100 is complete control, read-out: Plant response rating, Wheat), the plant injury at 500 g/ha came to 70%. This compound had a Corn plant response rating (crop injury, 0 = no effect, 100 = complete kill) at 125 g/ha in the assay with corn (Zea mays) (125 g ai/ha, postemergence, visual rating after approx. 10 d, 0 to 100 scale (0 no effect, 100 complete control)) of 60%. Besides, in the assay on corn (Zea mays) (Postemergence, 500 g ai/ha, 0 to 100 scale where 0 is no effect and 100 is complete control), the Corn plant response rating (crop injury, 0 = no effect, 100 = complete kill) at 500 g/ha worked out at 70%.
As for `O=C1NC[C@H](c2ccc3c(c2)CCO3)[C@H]1C(=O)Nc1ccc(F)cc1F` [Compound 902], the pest or weed control at 250 g/ha with rice (Oryra sativa) (Oryza sativa, scale of 0 to 100 where 0 is no effect and 100 is complete control, read-out: Rice plant response rating) was 0%; in assay [1] (Cyperus difformis, scale of 0 to 100 where 0 is no effect and 100 is complete control, read-out: Sedge, Umbrella plant response rating), 0%; in assay [2] (Heteranthera limosa, scale of 0 to 100 where 0 is no effect and 100 is complete control, read-out: Ducksalad plant response rating), 75%; in [3] (Echinochloa crus-galli, scale of 0 to 100 where 0 is no effect and 100 is complete control, read-out: Barnyardgrass plant response rating), 0%. For the same compound, the pest or weed control at 125 g/ha in [4] (preemergence, read-out: Pigweed plant response rating) is 0%; in [5] (visual injury rating after approximately 10 d, read-out: Ryegrass, Italian plant response rating (0 to 100 scale, 0 no effect, 100 complete control)), 0%; in assay [6] (visual injury rating after approximately 10 d, read-out: Ragweed plant response rating (0 to 100 scale, 0 no effect, 100 complete control)) it was 0%; with Kochia (Kochia scoparia) (visual injury rating after approximately 10 d, read-out: Kochia plant response rating (0 to 100 scale, 0 no effect, 100 complete control)), 0%; in assay [8] (visual injury rating after approximately 10 d, read-out: Foxtail, Giant plant response rating (0 to 100 scale, 0 no effect, 100 complete control)), 30%; in assay [9] (visual injury rating after approximately 10 d, read-out: Blackgrass plant response rating (0 to 100 scale, 0 no effect, 100 complete control)) it was 0%. For the same compound, the pest or weed control at 125 g/ha was found to be 0% in assay [10] (visual injury rating after approximately 10 d, read-out: Pigweed plant response rating (0 to 100 scale, 0 no effect, 100 complete control)); 60% in [11] (visual injury rating after approximately 10 d, read-out: Barnyardgrass plant response rating (0 to 100 scale, 0 no effect, 100 complete control)); 0% in assay [12] (visual injury rating after approximately 10 d, read-out: Galium plant response rating (0 to 100 scale, 0 no effect, 100 complete control)). Further, the pest or weed control at 500 g/ha in assay [4] (Preemergence, visual injury vs untreated controls after approximately 10 d, read-out: Pigweed plant response rating (0 to 100 scale where 0 is no effect and 100 is complete control)) is 0%. Besides, the plant injury at 125 g/ha in assay [7] (visual injury rating after approximately 10 d, read-out: Wheat plant response rating (0 to 100 scale, 0 no effect, 100 complete control)) worked out at 0%; in the assay with corn (Zea mays) (125 g ai/ha, postemergence, visual injury rating after approximately 10 d, read-out: Corn plant response rating (0 to 100 scale, 0 no effect, 100 complete control)), 0%.
